The values below come from ChEMBL document CHEMBL1687887, “Evolution of potent and stable placental-growth-factor-1-targeting CovX-bodies from phage display peptide discovery” (J Med Chem, 2011).

As usually defined, the IC50 is the concentration that gives 50% inhibition. In general, Kd refers to the free concentration of one partner at which half of the binding sites on the other are occupied at equilibrium, for simple one-to-one binding.

Active and inactive are the calls of the source. The calls are words filed in the database; no cut-off is given here. Numbered stars: 1 amine (or outer) side, 2 acyl side, 3 side chain; on linkers, the order of the positions; unused ones are H or OH. Bridge positions count the residues as written; N and C are the ends. Square brackets hold non-standard residues; d marks the D form. Peptide text beside a SMILES is read from it. * marks the point of attachment. X2 = NCCCC[C@H](N[*:1])C(=O)NC(=O)COCC(=O)[*:2]; X1 = O=C(COCC(=O)*)Nc1ccc(CCC(=O)N2CCC2=O)cc1; X3 = O=C(CCc1ccc(N*)cc1)N1CCC1=O; NMeE = CN[C@@H](CCC(=O)O)C(=O)O; Aib = CC(C)(N)C(=O)O Where only a bound is given, the exact number is not on record here.

Series [1] has as its target T1, Placenta growth factor (Homo sapiens, UniProt P49763).
T1 sequence (P49763 whole entry): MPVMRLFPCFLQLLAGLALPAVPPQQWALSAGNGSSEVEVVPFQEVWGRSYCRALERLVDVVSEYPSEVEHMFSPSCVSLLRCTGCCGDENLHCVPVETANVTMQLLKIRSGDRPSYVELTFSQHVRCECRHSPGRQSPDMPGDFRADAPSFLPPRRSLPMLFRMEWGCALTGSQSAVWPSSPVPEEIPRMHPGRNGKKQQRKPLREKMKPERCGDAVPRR
The series is described as follows: Inhibition of human PlGF-1-VEGFR-1 interaction by ELISA.

Series [2] has as its target T1, Placenta growth factor. The series is described as follows: Binding affinity to human PlGF-1. To be noted: read-out: Kd.
Series [3] is described as follows: Terminal half life in Swiss Webster mouse at 10 mg/kg, iv. The class given is ADME, organism-based. Set-up: dose 10 mg/kg, route intravenous. To be noted: in vivo, read-out: beta t1/2 (converted).
A short description of series [4]: Stability of the compound in presence of cathepsin B. The series is classed as ADME.
The nature of series [5]: Terminal half life in cynomolgus monkey at 10 mg/kg, iv. The series is classed as ADME, organism-based, Macaca fascicularis. Set-up: dose 10 mg/kg, route intravenous. To be noted: in vivo, read-out: beta t1/2 (converted).
Series [6] deals with T2, Placenta growth factor (Mus musculus, UniProt P49764).
T2 sequence (P49764 whole entry): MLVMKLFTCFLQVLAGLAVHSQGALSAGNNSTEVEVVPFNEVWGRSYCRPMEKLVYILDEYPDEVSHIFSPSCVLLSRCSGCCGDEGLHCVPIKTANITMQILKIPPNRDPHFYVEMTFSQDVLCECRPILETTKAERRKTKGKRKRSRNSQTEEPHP
The series can be described thus: Binding affinity to mouse PlGF.

Series [7] has as its target T1, Placenta growth factor. The series can be described thus: Binding affinity to human PlGF-2.
Series [8] addresses T1, Placenta growth factor. The series can be described thus: Inhibition of human PlGF-2-VEGFR-1 interaction by ELISA.
In series [9] the target is T3, Placenta growth factor (Mus musculus) (UniProt P49764).
T3 sequence (whole entry): T2 sequence (P49764 whole entry)
The series is described as follows: Inhibition of mouse PlGF interaction with human VEGFR-1 by ELISA. For orientation: An ELISA detects its analyte on a solid surface through an enzyme-linked reagent.

The target of series [10] is T3, Placenta growth factor (Mus musculus). The series is described as follows: (§1) Inhibition of mouse PlGF-VEGFR-1 interaction by ELISA.
Series [11] is described as follows: Stability in Swiss Webster mouse serum assessed as functional compound remaining after 6 hrs. The class given is ADME, cell-free. To be noted: read-out: Stability.
The target in series [12] is T2, Placenta growth factor. The series is described as §1.
Series [13] concerns the target T4, Placenta growth factor (Homo sapiens) (UniProt P49763).
T4 sequence (whole entry): T1 sequence (P49763 whole entry)
The series can be described thus: Binding affinity to human PlGF-2 by surface plasmon resonance study. (In SPR one partner is held on a chip, and binding of the other changes the refractive index at the surface.)

The target of series [14] is T4, Placenta growth factor (Homo sapiens). The series can be described thus: Binding affinity to human PlGF-1 by surface plasmon resonance study.

`CC[C@H](C)[C@@H]1NC(=O)[C@H](Cc2ccc(O)cc2)NC(=O)[C@H](Cc2cnc[nH]2)NC(=O)[C@@H](NC(=O)[C@@H](NC(=O)[C@H](CCC(=O)O)N(C)C(=O)[C@H](Cc2ccccc2)NC(=O)[C@H](C)NC(=O)[C@H](C)NC(=O)[C@H](CC(=O)O)NC(=O)[C@H](C)NC(C)=O)C(C)C)CSSC[C@@H](C(=O)N[C@H](C(=O)N[C@@H](CCCNC(=N)N)C(=O)N[C@@H](Cc2ccc(O)cc2)C(N)=O)[C@@H](C)O)NC(=O)[C@H](Cc2cnc[nH]2)NC(=O)[C@@H]2CCCN2C(=O)[C@H](CC(C)C)NC(=O)[C@H](CCCCNC(=O)COCC(=O)Nc2ccc(CCC(=O)N3CCC3=O)cc2)NC1=O` (Ac-ADAAF[NMeE]VCHYIK(X1)LPHCTRY-NH2; disulfide 8-16) yielded an IC50 against Placenta growth factor [1] of 3 nM. For the same compound, the Kd at Placenta growth factor [2] was 8 nM. The half-life in [3] was 24 h.

`CC[C@H](C)[C@@H]1NC(=O)[C@H](Cc2ccc(O)cc2)NC(=O)[C@H](Cc2cnc[nH]2)NC(=O)[C@@H](NC(=O)[C@@H](NC(=O)[C@H](CCC(=O)O)N(C)C(=O)[C@H](Cc2ccccc2)NC(=O)[C@H](C)NC(=O)[C@H](C)NC(=O)[C@H](CC(=O)O)NC(=O)[C@H](C)NC(C)=O)C(C)C)CSSC[C@@H](C(=O)N[C@H](C(=O)N[C@@H](CCCCNC(C)=O)C(=O)NC(C)(C)C(N)=O)[C@@H](C)O)NC(=O)[C@H](Cc2cnc[nH]2)NC(=O)C(C)(C)NC(=O)[C@H](CC(C)C)NC(=O)[C@H](CCCCNC(=O)COCC(=O)Nc2ccc(CCC(=O)N3CCC3=O)cc2)NC1=O` (Ac-ADAAF[NMeE]VCHYIK(X1)L[Aib]HCTK(Ac)[Aib]-NH2; disulfide 8-16): the Stability entry in [4] was “Stable”. Moreover, the IC50 at Placenta growth factor [1] was determined as 0.4 nM. The half-life in series [5] is 78 h; in [3] it was 75 h. Moreover, the Kd at Placenta growth factor [2] turned out to be 0.1 nM; at Placenta growth factor [6], 70 nM; on Placenta growth factor [7] it was 9 nM.

Compound `CC[C@H](C)[C@@H]1NC(=O)[C@H](Cc2ccc(O)cc2)NC(=O)[C@H](Cc2cnc[nH]2)NC(=O)[C@@H](NC(=O)[C@@H](NC(=O)[C@H](CCC(=O)O)NC(=O)[C@H](Cc2ccccc2)NC(=O)[C@H](C)NC(=O)[C@H](C)NC(=O)[C@H](CC(=O)O)NC(C)=O)C(C)C)CSSC[C@@H](C(=O)N[C@H](C(=O)N[C@@H](CCCN=C(N)N)C(=O)N[C@@H](Cc2ccc(O)cc2)C(N)=O)[C@@H](C)O)NC(=O)[C@H](Cc2cnc[nH]2)NC(=O)[C@@H]2CCCN2C(=O)[C@H](CC(C)C)NC(=O)[C@H](CCCCNC(=O)COCC(=O)Nc2ccc(CCC(=O)N3CCC3=O)cc2)NC1=O` (Ac-DAAFEVCHYIK(X1)LPHCTRY-NH2; disulfide 7-15) displayed an IC50 on Placenta growth factor [1] of 1 nM. Also, the Kd on Placenta growth factor [2] worked out at 0.3 nM. Moreover, the half-life in series [3] is 14 h.

Take `CSCC[C@H](NC(=O)[C@@H](NC(=O)[C@H](CCCCN)NC(=O)[C@@H]1CSSC[C@H](NC(=O)[C@@H](NC(=O)[C@H](CC(=O)O)NC(=O)[C@H](Cc2ccccc2)NC(C)=O)C(C)C)C(=O)N[C@@H](CCCCN)C(=O)N[C@@H](Cc2c[nH]c3ccccc23)C(=O)N[C@@H](C(C)C)C(=O)N[C@@H]([C@@H](C)O)C(=O)N[C@@H](CC(C)C)C(=O)N2CCC[C@H]2C(=O)N[C@@H](Cc2cnc[nH]2)C(=O)N1)C(C)C)C(=O)N[C@@H](CCCCN)C(=O)NC(=O)COCC(=O)Nc1ccc(CCC(=O)N2CCC2=O)cc1` (Ac-FDVCKWVTLPHCKVM[X2]-X3; disulfide 4-12): the results for the IC50 at Placenta growth factor [1] and against Placenta growth factor [8] were 2 nM and 150 nM, respectively. Moreover, the Kd at Placenta growth factor [2] came out at 4 nM; on Placenta growth factor [6] it was 400 nM; at Placenta growth factor [7], 100 nM. In addition, the inhibition result in series [9] and in series [10] was “inactive” each time.

Turning to `CSCC[C@H](NC(=O)[C@@H](NC(=O)[C@H](CCCCNC(C)=O)NC(=O)[C@@H]1CSSC[C@H](NC(=O)[C@@H](NC(=O)[C@H](CC(=O)O)NC(=O)[C@H](Cc2ccccc2)NC(C)=O)C(C)C)C(=O)N[C@@H](CC(N)=O)C(=O)N[C@@H](Cc2c[nH]c3ccccc23)C(=O)N[C@@H](C(C)C)C(=O)N[C@@H](CCCCNC(=O)COCC(=O)Nc2ccc(CCC(=O)N3CCC3=O)cc2)C(=O)N[C@@H](CC(C)C)C(=O)N2CCC[C@H]2C(=O)N[C@@H](Cc2cnc[nH]2)C(=O)N1)C(C)C)C(N)=O` (Ac-FDVCNWVK(X1)LPHCK(Ac)VM-NH2; disulfide 4-12), the Kd at Placenta growth factor [2] was determined as 9 nM. Moreover, in [11], the remaining at 6 h worked out at 20%. The compound further gave an IC50 at Placenta growth factor [12] of 4 nM.

Turning to `CSCC[C@H](NC(=O)[C@H](CCCCNC(=O)COCC(=O)Nc1ccc(CCC(=O)N2CCC2=O)cc1)NC(=O)[C@H](CCCCNC(C)=O)NC(=O)[C@@H]1CSSC[C@H](NC(=O)[C@@H](NC(=O)[C@H](CC(=O)O)NC(=O)[C@H](Cc2ccccc2)NC(C)=O)C(C)C)C(=O)N[C@@H](CC(N)=O)C(=O)N[C@@H](Cc2c[nH]c3ccccc23)C(=O)N[C@@H](C(C)C)C(=O)N[C@@H]([C@@H](C)O)C(=O)N[C@@H](CC(C)C)C(=O)N2CCC[C@H]2C(=O)N[C@@H](Cc2cnc[nH]2)C(=O)N1)C(N)=O` (Ac-FDVCNWVTLPHCK(Ac)K(X1)M-NH2; disulfide 4-12), the IC50 against Placenta growth factor [1] and on Placenta growth factor [12] was 4 nM throughout. Besides, the outcome in series [13] and in [14] was Active. For the same compound, the Kd on Placenta growth factor [2] worked out at 5 nM. The remaining at 6 h in [11] is below 5%.

Turning to `CSCC[C@H](NC(=O)[C@@H](NC(=O)[C@H](CCCCNC(=O)COCC(=O)Nc1ccc(CCC(=O)N2CCC2=O)cc1)NC(=O)[C@@H]1CSSC[C@H](NC(=O)[C@@H](NC(=O)[C@H](CC(=O)O)NC(=O)[C@H](Cc2ccccc2)NC(C)=O)C(C)C)C(=O)N[C@@H](CC(N)=O)C(=O)N[C@@H](Cc2c[nH]c3ccccc23)C(=O)N[C@@H](C(C)C)C(=O)N[C@@H]([C@@H](C)O)C(=O)N[C@@H](CC(C)C)C(=O)N2CCC[C@H]2C(=O)N[C@@H](Cc2cnc[nH]2)C(=O)N1)C(C)C)C(N)=O` (Ac-FDVCNWVTLPHCK(X1)VM-NH2; disulfide 4-12), the equilibrium dissociation constant (Kd) at Placenta growth factor [2] was 4 nM. Also, the remaining at 6 h in series [11] amounted to 11%. The compound also returned an IC50 at Placenta growth factor [12] of 54 nM.
